# Data: paper PMC10928841, “Ames test study designs for nitrosamine mutagenicity testing: qualitative and quantitative analysis of key assay parameters” (Mutagenesis, 2023)
# Like-named read-outs stand apart in the source and are kept apart here.
# How the values were obtained:
# CYP2E1 [1] = biological target: CYP2E1 (Rattus norvegicus, UniProt P05182); assay: Effect of vehicle on CYP2E1 activity of rat liver S9 (chlorzoxazone 6-hydroxylation); conditions: induced rat liver S9; vehicle 7.7% (v/v); chlorzoxazone 10 µM; 30 min
# Chain of CYP2E1 (Rattus norvegicus, UniProt P05182) (P05182 whole entry): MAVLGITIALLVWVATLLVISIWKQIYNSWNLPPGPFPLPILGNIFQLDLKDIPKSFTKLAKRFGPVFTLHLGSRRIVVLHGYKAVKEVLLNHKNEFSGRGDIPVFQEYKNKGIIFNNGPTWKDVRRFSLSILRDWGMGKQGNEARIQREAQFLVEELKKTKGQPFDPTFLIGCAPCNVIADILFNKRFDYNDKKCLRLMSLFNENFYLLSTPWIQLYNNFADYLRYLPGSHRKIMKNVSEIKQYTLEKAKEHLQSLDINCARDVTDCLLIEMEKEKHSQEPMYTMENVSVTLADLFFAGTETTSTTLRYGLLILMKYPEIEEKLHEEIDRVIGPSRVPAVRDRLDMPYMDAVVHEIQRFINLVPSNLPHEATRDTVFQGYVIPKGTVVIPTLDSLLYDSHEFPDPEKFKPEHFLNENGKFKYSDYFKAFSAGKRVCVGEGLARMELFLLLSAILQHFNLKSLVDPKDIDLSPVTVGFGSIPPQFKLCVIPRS
# CYP2E1 [2] = biological target: CYP2E1 (Mesocricetus auratus, UniProt P51581); assay: Effect of vehicle on CYP2E1 activity of hamster liver S9 (chlorzoxazone 6-hydroxylation); conditions: vehicle 7.7% (v/v), chlorzoxazone 10 µM, 30 min; for effect on conversion of chlorzoxazone to 6-hydroxychlorzoxazone compared with water: induced hamster liver S9; for reduction of 6-hydroxychlorzoxazone formation compared with water: Aroclor-induced hamster liver S9
# Chain of CYP2E1 (Mesocricetus auratus, UniProt P51581) (P51581 whole entry): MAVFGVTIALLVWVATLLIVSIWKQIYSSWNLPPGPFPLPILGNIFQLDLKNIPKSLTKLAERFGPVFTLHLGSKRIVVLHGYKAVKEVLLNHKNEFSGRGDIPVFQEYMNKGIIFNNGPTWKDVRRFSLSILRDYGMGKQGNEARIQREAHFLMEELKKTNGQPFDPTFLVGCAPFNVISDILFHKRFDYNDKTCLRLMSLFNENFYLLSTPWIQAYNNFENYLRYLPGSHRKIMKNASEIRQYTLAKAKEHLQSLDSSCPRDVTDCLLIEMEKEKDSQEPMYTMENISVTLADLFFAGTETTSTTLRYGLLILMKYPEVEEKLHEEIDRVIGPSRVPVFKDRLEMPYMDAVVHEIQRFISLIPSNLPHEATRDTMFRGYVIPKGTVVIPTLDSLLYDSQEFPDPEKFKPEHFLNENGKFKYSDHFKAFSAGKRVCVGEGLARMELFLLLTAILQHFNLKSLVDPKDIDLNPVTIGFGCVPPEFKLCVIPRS
# [3] = tested on: S. typhimurium and E. coli tester strains; assay: Benchmark dose (BMD) modelling of positive Ames test dose-response data; assay type: cell-based, Salmonella typhimurium and Escherichia coli; conditions: BMR 100%; all positive combinations of vehicle, method, strain and S9
# Description: Benchmark dose analyses were carried out using the freely available PROAST R-package (version 70.3) (http://www.proast.nl). Ames test dose–response data (with cytotoxic test concentrations removed) were analysed using the exponential model family recommended by EFSA for the assessment of continuous (geno)toxicity dose–response data [37]. Where combined analyses were used, dose–response relationships were analysed using the assay conditions discriminating the subgroups (i.e. sub-study) as a covariate. To prevent overfitting, more complex models with additional parameters were only accepted if the goodness-of-fit exceeded the critical value at P < .05. PROAST outputs designate potency (i.e. the benchmark dose (BMD)) and its two-sided, 90% confidence interval (i.e. the BMDL and BMDU) as the ‘Critical Effect Dose’ (i.e. yielding a CED, CEDL, and CEDU), respectively, for each level of the covariate. Using the combined-covariate BMD approach [38], the model parameters that required estimation for each subgroup and those that could be considered constant across subgroups were established for the combined dataset. In general, the combined analyses presented here assumed that parameters for the maximum response (parameter c), log-steepness (parameter d) were equal for all subgroups, while the background response (parameter a), potency (parameter b), and within-group variation (var) were tested for subgroup dependence [39]. Model fits were used to visually evaluate the validity of the assumption of conserved shape. […]
# To further understand the impact of different test parameters on test outcomes, BMD-derived potency/sensitivity rankings [38] were generated from the dose–response relationships for NDMA and NDEA. […] Instead, the purpose is to quantitatively provide a means to compare the potency/sensitivity of different assay conditions, that is, bacterial strain, S9 source, vehicle, and plate/pre-incubation methods, to inform on optimal study designs for robust/sensitive mutagenicity calls. […]
# E. coli WP2uvrA (pKM101) [4] = conditions: for increase in mutant frequency at the limit concentration: 5000 µg/plate
# Salmonella typhimurium = conditions: cited from earlier work
# S. typhimurium TA98 = assay: Ames test, pre-incubation method, TA98; conditions: vehicle acetonitrile, up to 5000 µg/plate
# S. typhimurium TA1537 = assay: Ames test, pre-incubation method, TA1537; conditions: S9 hamster, vehicle acetonitrile, up to 5000 µg/plate
# E. coli WP2uvrA (pKM101) [5] = assay: Ames test, pre-incubation method, WP2uvrA (pKM101); conditions: for increase in mutant frequency compared with vehicle controls: 5000 µg/plate
# rat = tested on: rat; set-up: method as in PMID 4230610; conditions: historical data; cited from earlier work
# S. typhimurium TA100 = assay: Ames test, pre-incubation method, TA100
# S. typhimurium TA1535 = assay: Ames test, pre-incubation method, TA1535; conditions: hamster liver S9-mix, vehicle water, 5000 µg/plate
# [6] = plate incorporation, rat liver S9-mix, vehicle methanol, E. coli WP2uvrA (pKM101)
# [7] = plate incorporation, rat liver S9-mix, vehicle water, E. coli WP2uvrA (pKM101)
# [8] = rat liver S9-mix, vehicle methanol
compound,measurement,setting,value
"C[S+](C)[O-] [DMSO, dimethylsulfoxide]",effect on conversion of chlorzoxazone to 6-hydroxychlorzoxazone compared with water,CYP2E1 [1],inhibit
same,effect on conversion of chlorzoxazone to 6-hydroxychlorzoxazone compared with water,CYP2E1 [2],inhibit
"CO [Methanol, methanol]",effect on conversion of chlorzoxazone to 6-hydroxychlorzoxazone compared with water,CYP2E1 [1],negligible effect
same,reduction of 6-hydroxychlorzoxazone formation compared with water,CYP2E1 [2],~ 50%
"CCN(CC)N=O [NDEA, N-nitrosodiethylamine]",range in sensitivity/potency (BMD100 confidence intervals) across positive datasets,[3],~ 100 fold
same,Ames test strain WP2*,E. coli WP2uvrA (pKM101) [4],+
same,concentration giving concentration-dependent increases in mutant frequency,"E. coli WP2uvrA (pKM101) [4]; plate incorporation, rat liver S9-mix, all three vehicles water, methanol or DMSO, E. coli WP2uvrA (pKM101)",≥ 1500 µg/plate
same,mutagenicity in the absence of metabolic activation,Salmonella typhimurium; not tested in the current study,non-mutagenic
same,Ames test strain TA98,S. typhimurium TA98; S9 hamster,Toxic
same,Ames test strain TA98,S. typhimurium TA98; S9 rat,Toxic
same,Ames test strain TA1537,S. typhimurium TA1537,Toxic
"CN(C)N=O [NDMA, N-Nitrosodimethylamine]",range in sensitivity/potency (BMD100 confidence intervals) across positive datasets,[3],~ 1000 fold
same,concentration giving an increase in revertant colonies compared with vehicle controls,E. coli WP2uvrA (pKM101) [4]; [6],5000 µg/plate
same,concentration giving an increase in revertant colonies compared with vehicle controls,E. coli WP2uvrA (pKM101) [4]; [7],≥ 1500 µg/plate
same,increase in mutant frequency compared with vehicle controls,"E. coli WP2uvrA (pKM101) [5]; rat liver S9, vehicle methanol",2 fold
same,increase in mutant frequency compared with vehicle controls,"E. coli WP2uvrA (pKM101) [5]; rat liver S9, vehicle water",2.6 fold
"CCN(C)N=O [NMEA, N-nitrosomethylethylamine]",range in sensitivity/potency (BMD100 confidence intervals) across positive datasets,[3],1000 fold
same,concentration giving an increase in revertant colonies compared with vehicle controls,E. coli WP2uvrA (pKM101) [4]; [6],≥ 1500 µg/plate
same,increase in mutant frequency at the limit concentration,E. coli WP2uvrA (pKM101) [4]; [6],4.3 fold
same,concentration giving an increase in revertant colonies compared with vehicle controls,E. coli WP2uvrA (pKM101) [4]; [7],≥ 2500 µg/plate
same,increase in mutant frequency at the limit concentration,E. coli WP2uvrA (pKM101) [4]; [7],2.7 fold
same,Ames test (legacy result),Salmonella typhimurium; historical data,negative
same,rodent cancer bioassay,rat,positive
same,fold-increase at the limit concentration,"S. typhimurium TA100; hamster liver S9-mix, vehicle water, 5000 µg/plate",32 fold
same,concentration giving a concentration-related increase in revertant colonies,S. typhimurium TA100; [8],≥ 1500 µg/plate
same,fold-increase at the limit concentration,S. typhimurium TA1535,275 fold
same,concentration giving a positive response,E. coli WP2uvrA (pKM101) [5]; [8],5000 µg/plate
CC(C)=O [acetone],effect on conversion of chlorzoxazone to 6-hydroxychlorzoxazone compared with water,CYP2E1 [1],negligible effect
same,reduction of 6-hydroxychlorzoxazone formation compared with water,CYP2E1 [2],~ 75%
CC#N [acetonitrile],effect on conversion of chlorzoxazone to 6-hydroxychlorzoxazone compared with water,CYP2E1 [1],inhibit
same,effect on conversion of chlorzoxazone to 6-hydroxychlorzoxazone compared with water,CYP2E1 [2],inhibit
